Experiments:
h-GABA-A α5β3γ2 [1] = molecular target: T1, h-GABA-A α5β3γ2 (Homo sapiens, UniProt P18507+P31644); assay: [3H]flumazenil competition binding assay, membranes of HEK293 cells expressing GABAA receptors; conditions: displacement of [3H]-Flumazenil 0.5 nM, HEK293 cells expressing human receptors, mean of two determinations; Table 1
Protocol: The affinity of compounds at GABAA receptor subtypes was measured by competition for [3H]flumazenil (85 Ci/mmol; Roche) binding to HEK293 cells expressing rat (stably transfected) or human (transiently transfected) receptors of composition α1β3γ2, α2β3γ2, α3β3γ2 and α5β3γ2.
Cell pellets were suspended in Krebs-tris buffer (4.8 mM KCl, 1.2 mM CaCl2), 1.2 mM MgCl2, 120 mM NaCl, 15 mM Tris; pH 7.5; binding assay buffer), homogenized by polytron for ca. 20 sec on ice and centrifuged for 60 min at 4° C. (50000 g; Sorvall, rotor: SM24=20000 rpm). The cell pellets were resuspended in Krebs-tris buffer and homogenized by polytron for ca. 15 sec on ice. Protein was measured (Bradford method, Bio-Rad) and aliquots of 1 mL were prepared and stored at −80° C.
Assays were incubated to equilibrium for 1 hour at 4° C. and harvested onto GF/C uni-filters (Packard) by filtration using a Packard harvester and washing with ice-cold wash buffer (50 mM Tris; pH 7.5). After drying, filter-retained radioactivity was detected by liquid scintillation counting. Ki values were calculated using Excel-Fit (Microsoft) and are the means of two determinations.

h-GABA-A α5β3γ2 [2] = molecular target: T1, h-GABA-A α5β3γ2; assay: Two-electrode voltage clamp electrophysiology in Xenopus laevis oocytes expressing GABAA receptors, modulation of GABA EC20 current; type: cell-based; set-up: host or cells: Xenopus laevis oocytes micro-injected with RNA transcripts of the subunits; conditions: Table 1; for Efficacy (GABA) %: % modulation of GABA EC20 = 100*(Fold increase-1); for Fold increase h-GABA-A α5β3γ2 oocyte: test compound at approx. 30 fold its Ki, GABA at EC20
Protocol: Xenopus laevis oocytes at maturation stages V-VI were used for the expression of cloned mRNA encoding GABAA receptor subunits. Oocytes ready for RNA micro-injection were bought from Ecocyte, Castrop-Rauxel, Germany and stored in modified Barth's medium (composition in mM: NaCl 88, KCl 1, NaHCO32.4, HEPES 10, MgSO4 0.82, CaNO3 0.33, CaCl2 0.33, pH=7.5) at 20° C. until the experiment.
Oocytes were plated in 96-well plates to be used in an automated instrument (Robo-ocyte, MultiChannelSystems, Reutlingen, Germany) for microinjection and electrophysiological recordings. Approximately 50 nl of an aqueous solution containing the RNA transcripts for the subunits of the desired GABAA receptor was injected into each oocyte. RNA concentrations ranged between 0.3 and 16 ng/μl/subunit and were adjusted in pilot experiments to obtain GABA responses of a suitable size and a maximal effect of the reference modulator, Beta-CCM (β-CCM), a betacarboline negative allosteric modulator (NAM) at the GABAA receptor benzodiazepine (BZD) binding site or Midazolam, a benzodiazepine positive allosteric modulator (PAM) at the GABAA receptor benzodiazepine (BZD) binding site. The concentration of the γ2 subunit encoding RNA usually was 5- to 10-fold higher than the RNAs encoding the other subunits. Oocytes were kept in modified Barth's medium (composition in mM: NaCl 88, KCl 1, NaHCO3 4, HEPES 10, MgSO4 0.82, CaNO3 0.33, CaCl2) 0.33, pH=7.5) at 20° C. until the experiment.
Electrophysiological experiments were performed on days 3 to 5 after the micro-injection of mRNA. During the experiment the oocytes were constantly superfused by a solution containing (in mM) NaCl 90, KCl 1, HEPES 5, MgCl2 1, CaCl2) 1 (pH 7.4). Oocytes were impaled by two glass microelectrodes (resistance: 0.4 MΩ) which were filled with a solution containing KCl 1M+K-acetate 1.5 M and voltage-clamped to −80 mV. The recordings were performed at room temperature using the Roboocyte two-electrode voltage clamp system (Multichannelsystem). After an initial equilibration period of 1.5 min GABA was added for 1.5 min at a concentration evoking approximately 20% of a maximal current response (EC20). After another rest interval of 2.5 min GABA was again added evoking a response of similar amplitude and shape. 0.5 min after the onset of this second GABA application the test compound, at a concentration corresponding to approximatively 30 fold its Ki, was added while GABA was still present. Current traces were recorded at a digitization rate of 10 Hz during and shortly before and after the GABA application.
Each compound and concentration was tested on at least 3 oocytes. Different oocytes were used for different compound concentrations. β-CCM, a negative allosteric modulator, or Midazolam, a positive allosteric modulators, were tested on a few (3-6) oocytes on each 96-well plate for a positive control at a maximally effective. β-CCM inhibited the GABA-evoked current by approximatively 50% (Fold increase ˜0.5), while Midazolam potentiated the GABA-induced current by approximatively 150% (Fold increase ˜2.5).
For the analysis, the digitized current traces of the first and second GABA response were superimposed and, if necessary, rescaled to equal maximal amplitudes. The ratio between the two responses during the time interval of test compound application was calculated point by point. The extremum of the resulting “ratio trace” was taken as the efficacy (“Fold increase”) of the compound expressed as “% modulation of GABA EC20” (100*(Fold increase-1)).

SMILES	Ki (h-GABA-A α5β3γ2 [1])	Efficacy (GABA) % (h-GABA-A α5β3γ2 [2])	Fold increase h-GABA-A α5β3γ2 oocyte (h-GABA-A α5β3γ2 [2])
Cc1ccc(-c2noc(C)c2Cn2ncc(N3CC4(CCC(C(F)(F)F)CO4)C3)cc2=O)nn1 (single isomer, unassigned) [Example 320]	24.8 nM	226%	3.26
Cc1ccc(-c2noc(C)c2Cn2ncc(N3CC4(CCC(C(F)(F)F)CO4)C3)cc2=O)nn1 (single isomer, unassigned) [Example 321]	6.3 nM	129%	2.29
Cc1onc(-c2ccc(Cl)nc2)c1Cn1ncc(N2CC3(CCC(C(F)(F)F)CO3)C2)cc1=O (single isomer, unassigned) [Example 323]	43.1 nM	76%	1.76
CCc1onc(-c2ccc(C)nn2)c1Cn1ncc(N2CC3(CCC(F)CO3)C2)cc1=O (single isomer, unassigned) [Example 325]	3.2 nM	178%	2.78
Cc1ccc(-c2noc(C)c2Cn2ncc(N3CCC4(CC3)CC(F)CCO4)cc2=O)nn1 (single isomer, unassigned) [Example 326]	1.9 nM	164%	2.64
Cc1ccc(-c2noc(C)c2Cn2ncc(N3CCC4(CC3)CC(F)CCO4)cc2=O)nn1 (single isomer, unassigned) [Example 327]	3.6 nM	122%	2.22
Cc1ccc(-c2noc(CF)c2Cn2ncc(N3CC4(CCC(F)CO4)C3)cc2=O)nn1 (single isomer, unassigned) [Example 329]	58.7 nM	164%	2.64
Cc1onc(-c2ccc(Cl)nc2)c1Cn1ncc(N2CCC3(CC2)CC(F)CCO3)cc1=O (single isomer, unassigned) [Example 330]	48.8 nM	159%	2.59
Cc1onc(-c2ccc(Cl)nc2)c1Cn1ncc(N2CCC3(CC2)CC(F)CCO3)cc1=O (single isomer, unassigned) [Example 331]	17.6 nM	159%	2.59
Cc1onc(-c2ncc(C(F)(F)F)cn2)c1Cn1ncc(N2CC3(CCC(F)CO3)C2)cc1=O (single isomer, unassigned) [Example 332]	2.6 nM	65%	1.65
CC(=O)N(C)[C@H]1CCN(c2cnn(Cc3c(-c4ccc(C)nc4)noc3C)c(=O)c2)C1 [Example 1, N-methyl-N-[(3S)-1-[1-[[5-methyl-3-(6-methyl-3-pyridyl)isoxazol-4-yl]methyl]-6-oxo-pyridazin-4-yl]pyrrolidin-3-yl]acetamide]	10.2 nM	63%	1.63
CC(=O)N(C)[C@@H]1CCN(c2cnn(Cc3c(-c4ccc(C)nc4)noc3C)c(=O)c2)C1 [Example 2, N-methyl-N-[(3R)-1-[1-[[5-methyl-3-(6-methyl-3-pyridyl)isoxazol-4-yl]methyl]-6-oxo-pyridazin-4-yl]pyrrolidin-3-yl]acetamide]	26.2 nM	155%	2.55
Cc1ccc(-c2noc(C)c2Cn2ncc(N3CC[C@@H](O)C3)cc2=O)cn1 [Example 3, 5-[(3R)-3-hydroxypyrrolidin-1-yl]-2-[[5-methyl-3-(6-methyl-3-pyridyl)isoxazol-4-yl]methyl]pyridazin-3-one]	10.6 nM	110%	2.1
Cc1ccc(-c2noc(C)c2Cn2ncc(N3CC[C@H](O)C3)cc2=O)cn1 [Example 4, 5-[(3S)-3-hydroxypyrrolidin-1-yl]-2-[[5-methyl-3-(6-methyl-3-pyridyl)isoxazol-4-yl]methyl]pyridazin-3-one]	8.6 nM	145%	2.45
Cc1ccc(-c2noc(C)c2Cn2ncc(N3CCC(O)CC3)cc2=O)cn1 [Example 5, 5-(4-hydroxy-1-piperidyl)-2-[[5-methyl-3-(6-methyl-3-pyridyl)isoxazol-4-yl]methyl]pyridazin-3-one]	1.6 nM	155%	2.55
Cc1ccc(-c2noc(C)c2Cn2ncc(N3CCOC(C)(C)C3)cc2=O)cn1 [Example 6, 5-(2,2-dimethylmorpholin-4-yl)-2-((5-methyl-3-(6-methylpyridin-3-yl)-1,2-oxazol-4-yl)methyl)pyridazin-3-one]	0.6 nM	145%	2.45
Cc1ccc(-c2noc(C)c2Cn2ncc(N3C[C@@H](C)O[C@@H](C)C3)cc2=O)cn1 [Example 7, 5-(cis-2,6-dimethylmorpholin-4-yl)-2-((5-methyl-3-(6-methylpyridin-3-yl)-1,2-oxazol-4-yl)methyl)pyridazin-3-one]	1 nM	253%	3.53
CCOC(=O)C1CCN(c2cnn(Cc3c(-c4ccc(C)nc4)noc3C)c(=O)c2)CC1 [Example 8, ethyl 1-(1-((5-methyl-3-(6-methylpyridin-3-yl)-1,2-oxazol-4-yl)methyl)-6-oxopyridazin-4-yl)piperidine-4-carboxylate]	26.4 nM	168%	2.68
Cc1ccc(-c2noc(C)c2Cn2ncc(N3CCN(C(=O)C4CC4)CC3)cc2=O)cn1 [Example 9, 5-(4-(cyclopropanecarbonyl)piperazin-1-yl)-2-((5-methyl-3-(6-methylpyridin-3-yl)isoxazol-4-yl)methyl)pyridazin-3(2H)-one]	15.9 nM	153%	2.53
Cc1ccc(-c2noc(C)c2Cn2ncc(N3CCN(C(=O)C4(C)CC4)CC3)cc2=O)cn1 [Example 10, 2-((5-methyl-3-(6-methylpyridin-3-yl)isoxazol-4-yl)methyl)-5-(4-(1-methylcyclopropanecarbonyl)piperazin-1-yl)pyridazin-3(2H)-one]	21.9 nM	222%	3.22
Cc1onc(-c2ccc(F)cc2)c1Cn1ncc(N2CCOCC2)cc1=O [Example 11, 2-((3-(4-Fluorophenyl)-5-methylisoxazol-4-yl)methyl)-5-morpholinopyridazin-3(2H)-one]	7.9 nM	57%	1.57

Source: patent publication US11840528B2 (Hoffmann-La Roche Inc., priority 2018, dated 2023)
